Results on 2 molecules are retold here after PMC3280530, “Marine Compounds Selectively Induce Apoptosis in Female Reproductive Cancer Cells but Not in Primary-Derived Human Reproductive Granulosa Cells” (Marine Drugs, 2012).

The subject of assay [1] is primary-derived human reproductive granulosa cells (HGC). As to the kind of experiment: LDH membrane integrity assay (necrosis). The format is cell-based. How it is done: (§1) The primary-derived granulosa cells, along with the KGN, JAr and OVCAR-3 cell lines (10,000 cells per well) were plated into sterile white (opaque) 96-well plates (Interpath) and clear sterile 96-well plates (Interpath) in 0.1 mL per well of complete cell culture medium for 24 h (granulosa, KGN and OVCAR-3 cells) and 2 h (for JAr cells) to allow cell adherence. Standard curves of 0–40,000 cells per well (primary granulosa cells) and 0–80,000 cells per well (for KGN, JAr and OVCAR-3 cells) in six replicate wells were plated into clear 96-well plates, alongside the test plates. After the initial cell adherence period, spent media (media deficient of nutrients and serum) were discarded and primary-derived granulosa, KGN, JAr and OVCAR-3 cells were treated with the two D. orbita fractions at concentrations of 0.005, 0.01, 0.05, 0.1, and 0.5 mg/mL in a final volume of 0.1 mL per well in triplicate wells, for 4 and 24 h at 37 °C + 5% CO2. 1 h prior to the end of eachincubation period two positive controls were added; one for apoptosis (1 μg/mL DNase I), and the second for necrosis (2 μL per well of a cell lysis buffer; Promega). This experiment was repeated on three separate occasions (n = 3).
(§2) After 4 and 24 h exposure to the D. orbita fractions in opaque 96-well plates, a combined membrane integrity and caspase 3/7 assay were performed on the primary-derived granulosa cells and KGN cells. The CytoTox-ONE Homogeneous Membrane Integrity Assay kit (Promega) was applied according to the manufacturer’s instructions. After the fluorescence was read at 535EX/590EM, the Caspase-Glo 3/7® assay (Promega) was applied to the primary granulosa cells and KGN cells according to the manufacturer’s instructions for1h and the plates were read on full light to capture total luminescence. The LDH-membrane integrity assay alone was performed on the JAr and OVCAR-3 cells using the CytoTox-ONE Homogeneous Membrane Integrity Assay kit (Promega). This assay was repeated on three separate occasions (n = 3).

Another assay deals with JAr cells. Kind of assay: LDH membrane integrity assay (necrosis). It counts as cell-based, human. Here is the method: as §1, §2
For assay [2], the system named is KGN cells. As to the kind of experiment: LDH membrane integrity assay (necrosis). The format is cell-based, human. How it is done: as §1, §2
The subject of another assay is OVCAR-3 cells. Kind of assay: LDH membrane integrity assay (necrosis). The format is cell-based, human. How it is done: as §1, §2
Assay [3] has as its system caspase-3 and -7 activity in HGC. Kind of assay: Caspase-Glo 3/7 assay. The format is cell-based, human. The conditions noted are these: 4 h treatment. How it is done:
as §1, §2

Assay [4] deals with caspase-3 and -7 activity in KGN cells. As to the kind of experiment: Caspase-Glo 3/7 assay. The conditions noted are these: for concentration at which caspase-3 and -7 activity (apoptosis) significantly increased: 4 h treatment. The format is cell-based, human. How it is done:
as §1, §2

Assay [5] deals with KGN cells. Kind of assay: TUNEL staining (apoptosis). It counts as cell-based, human. The conditions noted are these: for TUNEL positive cells: 4 h, 0.05 mg/mL; for TUNEL labelled cells: 24 h, 0.005 mg/mL. Here is the method: Primary-derived human granulosa cells and KGN cells were plated into Nunc Lab-Tek II CC2 Chamber Slides at 30,000 cells per chamber well in a final volume of 0.3 mL of DMEM/F12 + 10% FBS complete cell culture medium and incubated for 24 h at 37 °C + 5% CO2 to allow cell attachment to slides. Spent media (media deficient of nutrients and serum) and non-viable and non-adherent cellswere discarded and replaced with the D. orbita fractions at concentrations of 0.005, 0.01 and 0.05 mg/mL in a final volume of 0.3 mL of DMEM/F12 + 10% medium. A medium-only and a 1% DMSO control were also added before incubation for 4 and 24 h at 37 °C + 5% CO2. This experiment was repeated on three separate occasions (n = 3). The supernatant was removed and the cells rinsed with PBS before fixation with 4% paraformaldehyde for 25 min at room temperature. The DeadEnd™ Fluorometric TUNEL System (Promega) was performed as recommended by the manufacturer. Briefly the cells were treated with 0.2% Triton X-100 for 5 min, to permeablize the cells. The cells were rinsed in PBS before the addition of 50 μL of rTdT incubation buffer (Promega) at 37 °C for 1 h, protected from light. Cells were rinsed in 2× sodium chloride and sodium citratesolution (Promega) for 15 min at room temperature (25 °C) then rinsed again with PBS. The cells were counter-stained with 1 μg/mL propidium iodide (PI). A separate positive control slide of 1 μg/mL DNase I, and a negative control slide of buffer without rTdT, was prepared in conjunction with treatment slides. Cells were examined immediately and photographed at 200 and 400× magnification using a Fluorescence Olympus BX50 Microscope with filter Chroma 31001 at excitation 450–495 nm, Dichroic 505 and emission 515–555 nm for the green fluorescein of TUNEL and Chroma 31002 at excitation 515–550 nm, Dichroic 565 and emission 575–615 nm for the red fluorescence of the PI staining. Photomicrographs of four fields of view were taken for each treatment in each repeat of theassay and the number of TUNEL positive nuclei, stained bright green, were calculated as a fraction of the total number of PI stained nuclei, stained bright red, in each image. The average of the four fields was then calculated.

The next assay concerns U937 lymphoma cell line. The conditions noted are these: U937, 4 h exposure, tyrindoleninone in an impure extract; read-out: concentration giving 50% reduction in cell viability; cited from earlier work.
The test system of assay [6] is untransformed human mononuclear cells (MNC). More on the design: method as in PMID 19491143, PMID 17088067. The conditions noted are these: in vitro, cited from earlier work.
Assay [7] has as its system MCF-7 breast carcinoma cells. Set-up: method as in PMID 19491143. The conditions noted are these: MCF-7, 4 h exposure, tyrindoleninone in an impure extract; read-out: concentration giving 50% reduction in cell viability; cited from earlier work.
The test system of assay [8] is CaCo2 colon carcinoma cells. Set-up: method as in PMID 19491143. The conditions noted are these: CaCo2, 4 h exposure, tyrindoleninone in an impure extract; read-out: concentration giving 50% reduction in cell viability; cited from earlier work.
Another assay deals with lymphoma cell. More on the design: method as in PMID 17088067. The conditions noted are these: 1 h exposure; read-out: concentration giving (predicted) 50% reduction in lymphoma cell viability; cited from earlier work.
Setting [9] is: exposure time not stated at the place (4 and 24 h tested).

Where two headings read alike, the source gives them in different places.

Turning to `O=C1Nc2cc(Br)ccc2C1=O` [6-Bromoisatin, 6-bromoisatin], the “concentration required to cause LDH release (necrosis)” value in assay [1] (4 h exposure) and in assay [1] (24 h exposure) was 2232 µM throughout. Moreover, the “concentration at which LDH release significantly increased” value in the assay with JAr cells (setting [9]) worked out at 446 µM; in the assay with KGN cells [2] (setting [9]), 446 µM; in the assay with OVCAR-3 cells (OVCAR-3, exposure time not stated at the place (4 and 24 h tested)) it was 446 µM. In [3], the “concentration at which caspase-3 and -7 activity was detected” value worked out at 0.1 mg/mL. In addition, the “concentration at which caspase-3 and -7 activity (apoptosis) significantly increased” value in [4] is given as 22 µM. Besides, the “change of caspase-3 and 7 activity” value in [4] (24 h, 22–2232 µM (0.005–0.5 mg/mL), dose-dependent) was “significantly decreased”. The molecule further displayed a TUNEL positive cells in the assay with KGN cells [5] of 58%. This molecule gave a TUNEL labelled cells in the assay on KGN cells [5] of 53%.
`CSC1=Nc2cc(Br)ccc2C1=O` [Tyrindoleninone, tyrindoleninone]: the “LDH released (fluorescence 535EX/590EM)” value is 876 ± 1084 in assay [1] (4 h, 1953 µM (0.5 mg/mL)) and 1612 ± 771 in the assay on KGN cells [2] (4 h, 1953 µM (0.5 mg/mL)). The “concentration required to cause LDH release (necrosis)” value amounted to 1953 µM in assay [1] (4 h exposure), 1953 µM in [1] (24 h exposure), 1953 µM in the assay with KGN cells [2] (4 h exposure) and 195 µM in the assay on KGN cells [2] (24 h exposure). Further, the “concentration at which necrosis (LDH release) was detected” value in the assay with JAr cells (4 h exposure) is reported as 195 µM; in the assay on OVCAR-3 cells (OVCAR-3, 4 h exposure), 391 µM. In assay [3], the “concentration at which caspase-3 and -7 activity (apoptosis) was noted” value was 391 µM. The “concentration at which caspase-3 and -7 activity (apoptosis) significantly increased” value in [4] came to 20 µM. The molecule further had a TUNEL positive cells in the assay on KGN cells [5] of 66%. In the assay with KGN cells [5], this molecule gave a TUNEL labelled cells of 62%. In addition, the IC50 is 391 µM with U937 lymphoma cell line; 195 µM in assay [6] (1 h exposure, read-out: IC50); 50 µg/mL in [6]; 391 µM in assay [7]; 391 µM in [8]; 4 µM in the assay on lymphoma cell.
